Laboratory results published in patent publication US8273357B2, “Antigen-carbohydrate conjugates” (Massachusetts Institute of Technology, priority 2004, dated 2012).

Key:
[1] = test system: CD11c+ dendritic cells / OTII T cells; assay: Antigen presentation assay, purified CD11c+ dendritic cells and purified OTII T cells; format: cell-based, mouse
Experimental: FIGS. 4A, 4B, 4C and 4D are graphs showing that CD11c^+ dendritic cells are the main antigen presenting cells presenting 3-1-targeted antigen. […] 1.5×10^4 Splenic CD11c^+ dendritic cells purified from C57BL/6 mice and 3.0×10^4 purified OTII T cells were incubated with OVA (starting concentration 300 μg mL^−1) or (OVA)-3-1 (starting concentration 25 μg mL^−1) in graded doses for eight-four hours with [^3H]thymidine (1 μCi) added for the last twelve hours. […] Purified CD11c^+ dendritic cells and OTII T cells were incubated with (OVA)-3-1 (25 μg mL^−1)±each potential inhibitor (100 μg mL^−1). T cell proliferation was determined as for FIG. 4A. […] CD11c^+ dendritic cells and OTII T cells were incubated with OVA or (OVA)-3-1±lipopolysaccharide ([…]). Also included are all ‘non-dendritic cells’ (macrophages and B cells) obtained during the purification of the dendritic cells. T cell proliferation was determined as described in FIG. 4A. […] Supernatants from cells described in FIG. 4C were collected at forty-eight and seventy-two hours and measured for IFN-γ by ELISA; the values presented are from the seventy-two hour time point. All measurements here were performed in triplicate.
To confirm that the increased T cell proliferation observed with (OVA)-3-1 was due to the selective uptake of this conjugate by dendritic cells and not B cells or macrophages, purified CD11c^+ dendritic cells were prepared from wild-type C57BL/6 mice and the OVA-specific T cells from transgenic OTII mice (see Materials & Methods). The in vitro antigen presentation assays described above were then repeated. […] By comparison, >50-fold more unmodified OVA was required to obtain similar levels of T cell proliferation. When B cells and macrophages were used as antigen-presenting cells in place of purified dendritic cells, the resulting T cell responses were negligible (FIG. 4C), providing strong confirmation that CD11c^+ dendritic cells are the main antigen-presenting cells mediating uptake and presentation of (OVA)-3-1 to OTII T cells.
(§1) Pooled inguinal lymph nodes were dissociated in 10% Fetal Bovine Serum RPMI (supplemented with 2 mM L-glutamine) and either mechanically dissociated between two glass slides or, to improve the overall cell yield, incubated in the presence of collagenase (Boehringer) and EDTA for 25 minutes at 37° C./5% CO2 to dissociate DC-T cell clusters. For antigen presentation assays with whole splenocytes, isolated spleens were injected with collagenase/EDTA, gently teased apart and incubated as described above. Splenocytes were cultured in 96-well round-bottom plates at a density of 3×10^5 cells/0.2 mL. In antigen presentation assays utilizing purified dendritic cells and T cells, dendritic cells were isolated from the spleens of C57BL/6 mice following collagenase/EDTA treatment by labeling the dendritic cells with commercially available magnetic microbeads linked to an anti-CD11c^+ antibody (Miltenyi Biotec, Bergisch Gladbach, Germany) (according to the Miltenyi Biotec protocol) and separating labeled Dendritic cells from non-dendritic cells by application of a magnetic field. Similarly, purified […] T cells were obtained from spleens of OTII transgenic mice using magnetic beads Dynal (Oslo, Norway). Purified dendritic cells and T cells were seeded onto 96-well plates round-bottom Plates at a 1:2 DC:T cell ratio unless stated otherwise in the Figures.

[2] = test system: OTII (CD4+) T cells in unfractionated splenocytes; assay: Antigen presentation assay, unfractionated OTII splenocytes, [3H]thymidine T cell proliferation; format: cell-based, mouse; settings: OTII splenocytes
Experimental: FIG. 2B is a graph showing that oligosaccharide modification of OVA elicits stronger presentation to OTII T cells than unmodified OVA. Unfractionated OTII splenocytes (3×10^5/well) were incubated with graded doses of OVA or oligosaccharide-modified OVA for eighty-four hours with [^3H]thymidine (1 μCi) added for the last 12 hours. Thereafter [^3H]thymidine incorporation levels were measured and plotted. FIG. 2C is a graph showing that observed enhancements in antigen presentation of (OVA)-3-1 to T cells is carbohydrate dependent. Splenocytes were incubated with antigen as in (B)±(BSA)-3-1 (10 μg mL^−1). In cases where (OVA)-3-1 was added to OVA wells to assess the possibility of direct activation of T cells (see text), (OVA)-3-1 was present at 50 ng mL^−1; incubations were performed for seventy-two hours with [^3H]thymidine (1 μCi) added for the last 12 hours. FIG. 2D is a graph showing that the receptor mediated uptake of (OVA)-3-1 has a different binding profile than that observed for DC-SIGN. Unfractionated splenocytes were incubated with OVA or (OVA)-3-1±mBSA or Lewis^x-BSA (each at 100 μg mL^−1). Incubations were performed for seventy-two hours with [^3H]thymidine (1 μCi) added for the last twelve hours. All values reported are the mean of triplicate measurements.
The ability of these conjugates to enhance antigen uptake by dendritic cells was assessed in comparison to unmodified OVA by incubating graded doses of conjugate and OVA with unfractionated splenocytes (containing T cells, B cells, dendritic cells, macrophages) isolated from OTII (CD4^+) transgenic mice. The ability of dendritic cells to present antigenic peptides derived from targeted proteins was measured as a function of T cell proliferation in response to those presented peptides. T cell proliferation is quantified by [^3H]thymidine incorporation during cellular division.
as §1

[3] = molecular target: T1, DC-SIGN (Homo sapiens, UniProt Q9NNX6); settings: carbohydrate profiling by another group; cited from earlier work
T1 sequence (Q9NNX6 1-404): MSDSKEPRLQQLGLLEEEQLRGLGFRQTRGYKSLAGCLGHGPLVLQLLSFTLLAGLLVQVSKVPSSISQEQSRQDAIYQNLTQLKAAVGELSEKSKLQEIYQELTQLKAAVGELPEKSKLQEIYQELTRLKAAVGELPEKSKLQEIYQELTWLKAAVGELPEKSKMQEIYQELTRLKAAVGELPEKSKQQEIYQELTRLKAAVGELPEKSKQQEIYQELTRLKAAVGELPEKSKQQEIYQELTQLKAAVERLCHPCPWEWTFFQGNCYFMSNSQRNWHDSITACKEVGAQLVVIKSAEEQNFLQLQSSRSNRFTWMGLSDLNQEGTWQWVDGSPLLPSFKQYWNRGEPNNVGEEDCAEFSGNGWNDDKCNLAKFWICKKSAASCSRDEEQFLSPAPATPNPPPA

[4] = molecular target: T2, CIRE (Mus musculus, UniProt Q91ZX1); assay: Binding and internalization by a cell line stably expressing CIRE; format: cell-based, murine
T2 construct: expressed in transfected cells
T2 sequence (Q91ZX1 1-238): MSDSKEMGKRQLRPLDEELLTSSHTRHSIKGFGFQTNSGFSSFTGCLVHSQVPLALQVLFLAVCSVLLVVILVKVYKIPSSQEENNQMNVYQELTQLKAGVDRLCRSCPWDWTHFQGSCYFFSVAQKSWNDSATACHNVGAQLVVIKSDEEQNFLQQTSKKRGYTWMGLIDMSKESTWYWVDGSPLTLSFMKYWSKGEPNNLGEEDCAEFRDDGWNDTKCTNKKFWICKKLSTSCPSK
Experimental: (§2) To identify the receptor mediating uptake of the oligosaccharides employed herein, the murine DC-SIGN homolog CIRE^10 was analyzed as a potential receptor; a cell line stably expressing this lectin was used to assay for binding and internalization of fluorophore-labeled 3-1 and fluorophore-labeled (OVA)-3-1. […] The receptor may be identified biochemically, for example, by cross-linking it to bound (OVA)-3-1 and immunoprecipitating the complex with polyclonal sera raised against ovalbumin. Identification of the receptor would enable the determination of its human homolog.

[5] = molecular target: T3, (OVA)-3-1, ovalbumin conjugated to the synthetic high-mannose nonasaccharide 3-1 (fluorophore-labeled in the … (UniProt P01012 2-386, average of three saccharides of structure 3-1 per molecule of OVA, coupled through the Sulfo-SMCC maleimide crosslinker to the thiol-bearing linker of the saccharide (sites not given); fluorophore …); assay: binding and internalization of fluorophore-labeled (OVA)-3-1 on a cell line stably expressing CIRE
T3 construct: Neoglycoprotein; also called fluorophore-labeled (OVA)-3-1; carbohydrate-OVA conjugate
T3 sequence (looked up): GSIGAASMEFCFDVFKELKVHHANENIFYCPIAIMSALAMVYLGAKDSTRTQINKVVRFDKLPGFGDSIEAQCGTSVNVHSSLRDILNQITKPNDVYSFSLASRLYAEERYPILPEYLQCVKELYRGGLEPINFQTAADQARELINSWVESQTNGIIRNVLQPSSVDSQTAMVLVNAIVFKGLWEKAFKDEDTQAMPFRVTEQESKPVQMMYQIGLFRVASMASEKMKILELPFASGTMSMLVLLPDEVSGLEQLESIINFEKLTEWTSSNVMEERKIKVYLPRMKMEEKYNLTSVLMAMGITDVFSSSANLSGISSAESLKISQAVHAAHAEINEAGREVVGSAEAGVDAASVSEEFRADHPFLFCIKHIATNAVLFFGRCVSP
Experimental: as §2, with “CIRE[10]” for “CIRE^10”

[6] = (OVA)-3-1 25 μg mL^−1, inhibitor 100 μg mL^−1

For mannan [reference compound], the “reduction (inhibition) of (OVA)-3-1 presentation” value [1, 6] was 31%.

For “bovine serum albumin [BSA, reference compound]”, the “effect of co-incubated protein on (OVA)-3-1 uptake / OTII proliferation” value ([2]; (BSA)-3-1 10 μg mL^−1, 72 h) was “did not affect”.

With “invertase: high-mannose-bearing glycoprotein [reference compound]” the “reduction (inhibition) of (OVA)-3-1 presentation” value [1, 6] was 18% and the “concentration giving inhibition of (OVA)-3-1 presentation” value ([1]; similar level of inhibition as mannose) was 0.5 µM.

In the case of `CC(=O)N[C@H]1C(O)O[C@H](CO)[C@@H](O[C@@H]2O[C@H](CO)[C@H](O)[C@H](O)[C@H]2O)[C@@H]1O[C@@H]1O[C@@H](C)[C@@H](O)[C@@H](O)[C@@H]1O` (stereo partly drawn) [Lewis^x, reference compound], the “inhibitory effect on (OVA)-3-1 presentation by dendritic cells” value [1, 6] is listed as “marginal effects” and the “recognition by DC-SIGN” value [3] is listed as “can recognize”.

B1: (OVA)-3-7: ovalbumin conjugate of monosaccharide galactose 3-7 (conjugate, UniProt P01012 2-386, looked up)
Ovalbumin: GSIGAASMEFCFDVFKELKVHHANENIFYCPIAIMSALAMVYLGAKDSTRTQINKVVRFDKLPGFGDSIEAQCGTSVNVHSSLRDILNQITKPNDVYSFSLASRLYAEERYPILPEYLQCVKELYRGGLEPINFQTAADQARELINSWVESQTNGIIRNVLQPSSVDSQTAMVLVNAIVFKGLWEKAFKDEDTQAMPFRVTEQESKPVQMMYQIGLFRVASMASEKMKILELPFASGTMSMLVLLPDEVSGLEQLESIINFEKLTEWTSSNVMEERKIKVYLPRMKMEEKYNLTSVLMAMGITDVFSSSANLSGISSAESLKISQAVHAAHAEINEAGREVVGSAEAGVDAASVSEEFRADHPFLFCIKHIATNAVLFFGRCVSP
modifications: carbohydrate conjugate
For B1, the “enhancement of antigen uptake and presentation to T cells (T cell proliferation) compared to unmodified OVA” value ([2]; graded doses) was “did not promote increased presentation at all”.

B2: fluorophore-labeled (OVA)-3-1: fluorophore-labeled (OVA)-3-1 (conjugate)
chain: GSIGAASMEFCFDVFKELKVHHANENIFYCPIAIMSALAMVYLGAKDSTRTQINKVVRFDKLPGFGDSIEAQCGTSVNVHSSLRDILNQITKPNDVYSFSLASRLYAEERYPILPEYLQCVKELYRGGLEPINFQTAADQARELINSWVESQTNGIIRNVLQPSSVDSQTAMVLVNAIVFKGLWEKAFKDEDTQAMPFRVTEQESKPVQMMYQIGLFRVASMASEKMKILELPFASGTMSMLVLLPDEVSGLEQLESIINFEKLTEWTSSNVMEERKIKVYLPRMKMEEKYNLTSVLMAMGITDVFSSSANLSGISSAESLKISQAVHAAHAEINEAGREVVGSAEAGVDAASVSEEFRADHPFLFCIKHIATNAVLFFGRCVSP
With B2 the “binding and internalization by CIRE-expressing cell line” value [4] was “did not reveal any interactions”.

B3: CIRE, murine DC-SIGN homolog (receptor)
chain: MSDSKEMGKRQLRPLDEELLTSSHTRHSIKGFGFQTNSGFSSFTGCLVHSQVPLALQVLFLAVCSVLLVVILVKVYKIPSSQEENNQMNVYQELTQLKAGVDRLCRSCPWDWTHFQGSCYFFSVAQKSWNDSATACHNVGAQLVVIKSDEEQNFLQQTSKKRGYTWMGLIDMSKESTWYWVDGSPLTLSFMKYWSKGEPNNLGEEDCAEFRDDGWNDTKCTNKKFWICKKLSTSCPSK
B3: no binding [5].
